# Measured values published in PubChem BioAssay AID1963831 (Molecular Pharmacology Branch, DTP, NCI, 2024).
# Where “and” joins values, the source holds several entries; their conditions need not be identical. Identical values can stand only once.
# System: 889142-216-R-J1-PDC complex spheroid viability
# Assay: Anticancer human tumor 889142-216-R-J1-PDC patient-derived bladder carcinoma cell line growth inhibition [POLQ]
# Conditions: for viability, T/C: stronger effect = lower value
# Procedure: Multicellular complex tumor spheroid response to Polymerase (POL) inhibitors (novobiocin, ART-558, RP6685) in combination with a variety of drugs and investigational agents in selected tumor cell lines
# The POL inhibitors (novobiocin, ART-558, and RP6685) were evaluated both individually and in combination with standard of care and investigational anticancer small molecules within a complex spheroid model of solid tumors. . Complex spheroids include a stromal component modeled by human endothelial cells (HUVEC) and fibroblasts modeled by human mesenchymal stem cells (MSCs). The concentration ranges selected for each drug and investigational agent were based upon clinically achievable concentrations if the clinical Cmax of the agent was known.
# Compounds. The drugs and investigational agents: novobiocin (NSC847541), ART-558 (NSC835418), RP-6685 (NSC848927), peposertib (NSC802822), ceralasertib (NSC780249), elimusertib (NSC800525), camonsertib (NSC841442), AZD-1390 (NSC803789), olaparib (NSC753686), talazoparib (NSC767125), rucaparib (NSC756644), sotorasib (NSC818433), MRTX-1133 (NSC836407), SN-38 (NSC673596), topotecan (NSC609699), epotoside (NSC141540), doxorubicin (NSC123127), gemcitabine (NSC613327), 5-fluorouracil (NSC19893), paclitaxel (NSC125973), vemurafenib (NSC761431), MSA-2 (NSC828583), SN-011 (NSC837082), adavosertib (NSC754352), prexasertib (NSC758257), carboplatin (NSC241240) and oxaliplatin (NSC266046), were obtained from the National Cancer Institute (NCI) Developmental Therapeutics Program Chemical Repository (21). The FDA-approved anticancer drug set is available from the Developmental Therapeutics Program at https://dtp.cancer.gov/organization/dscb/obtaining/. […] The stock solutions were prepared in dimethyl sulfoxide (DMSO, Sigma-Aldrich, St. Louis, MO, cat. D2650), except for the platinum compounds which were prepared in saline (Quality Biological, Gaithersburg, MD, cat. 114-055-101), at 800-fold the tested concentration and stored at -70 degrees C prior to their use. All drugs and investigational agents were tested over a range starting from a high concentration at or near the clinical Cmax and decreasing in half-log increments. If the clinical Cmax for an agent had not been determined, the highest concentration tested was 10 microM, except for SN-38, which was tested at a high concentration of 1 microM.
# Cell Culture. All cells were maintained in an incubator at 37 degrees C and 5% CO2 with 95% humidity. The PDC lines were cultured according to standard operating procedures established by the NCI PDMR (https://pdmr.cancer.gov). Table 3 of the manuscript, lists the cell lines along with the number of the three cell types plated to form the mct-spheroids and media for tumor cell growth. After thawing, all PDC lines, except 997537-175-T-J1-PDC and 415267-285-R-J2-PDC, were cultured in Matrigel-coated flasks prepared with a working solution of 1X Ham's F-12 nutrient mix, without supplementation (Thermo Fisher Scientific, cat. 11765054), 100 U/mL penicillin-streptomycin (Thermo Fisher Scientific, cat. 15140122), and 2.5% Matrigel (Corning Inc., Corning, NY, cat. 354248) for the first three passages. The two PDC lines 997537-175-T-J1-PDC and 415267-285-R-J2-PDC were cultured on uncoated flasks. The 857933-349-R-J2-PDC line was cultured in 6C/Colon 1B media containing advanced DMEM/F-12 (Thermo Fisher Scientific, cat. 12634028), 10 mM HEPES (Thermo Fisher Scientific, cat. 15630080), 1X GlutaMAX supplement (Thermo Fisher Scientific, cat. 35050061), 0.1 mg/mL primocin (InvivoGen, San Diego, CA, cat. ant-pm-2), 10% defined fetal bovine serum, heat inactivated (HyClone Laboratories Inc., Logan, UT, cat. SH30070.03HI), 50% L-WRN conditioned media (ATCC, cat. CRL-3276), 1.25 mM N-Acetyl-L-cysteine (Sigma-Aldrich, cat. A9165), 10 mM nicotinamide (Sigma-Aldrich, cat. N0636), 1X B-27 supplement (Thermo Fisher Scientific, cat. 17504044), 1X N-2 supplement (Thermo Fisher Scientific, cat. […]
# 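Also: spheroids exposed to compounds for seven days.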
# 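For viability, T/C in this document: 100% = DMSO vehicle control viability.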
structure (smiles),measurement,setting,value
CC(=O)O[C@H]1C(=O)[C@@]2(C)[C@H]([C@H](OC(=O)c3ccccc3)[C@]3(O)C[C@H](OC(=O)[C@H](O)[C@@H](NC(=O)c4ccccc4)c4ccccc4)C(C)=C1C3(C)C)[C@]1(OC(C)=O)CO[C@@H]1C[C@@H]2O + Nc1ccc(C#CCN(C(=O)Cc2ncc(C(F)(F)F)cc2C(F)(F)F)c2ccc(F)cc2)nn1,IC50,"curve of first compound, second compound 0.0316 µM",72 nM
same,IC50,"curve of first compound, second compound 0.1 µM",907 nM
same,IC50,"curve of first compound, second compound 0.316 µM",> 3000 nM
same,IC50,"curve of first compound, second compound 1 µM",1330 nM
same,IC50,"curve of first compound, second compound 3.16 µM",< 9.49 nM
same,IC50,"curve of first compound, second compound 10 µM",> 3000 nM
same,"viability, T/C","second compound 0.0316 µM, first compound 0.00949 µM",53.5%
same,"viability, T/C","second compound 0.0316 µM, first compound 0.03 µM",45.8%
same,"viability, T/C","second compound 0.0316 µM, first compound 0.0949 µM",51.5%
same,"viability, T/C","second compound 0.0316 µM, first compound 0.3 µM",50.9%
same,"viability, T/C","second compound 0.0316 µM, first compound 0.949 µM",49.4%
same,"viability, T/C","second compound 0.0316 µM, first compound 3 µM",43.8%
same,"viability, T/C","second compound 0.1 µM, first compound 0.00949 µM",57.1%
same,"viability, T/C","second compound 0.1 µM, first compound 0.03 µM",41.5%
same,"viability, T/C","second compound 0.1 µM, first compound 0.0949 µM",54.6%
same,"viability, T/C","second compound 0.1 µM, first compound 0.3 µM",51.2%
same,"viability, T/C","second compound 0.1 µM, first compound 0.949 µM",53.1%
same,"viability, T/C","second compound 0.1 µM, first compound 3 µM",47.1%
same,"viability, T/C","second compound 0.316 µM, first compound 0.00949 µM",53%
same,"viability, T/C","second compound 0.316 µM, first compound 0.03 µM",57.2%
same,"viability, T/C","second compound 0.316 µM, first compound 0.0949 µM",46.3%
same,"viability, T/C","second compound 0.316 µM, first compound 0.3 µM",50.3%
same,"viability, T/C","second compound 0.316 µM, first compound 0.949 µM",61.7%
same,"viability, T/C","second compound 0.316 µM, first compound 3 µM",50.9%
same,"viability, T/C","second compound 1 µM, first compound 0.00949 µM",53.7%
same,"viability, T/C","second compound 1 µM, first compound 0.03 µM",51%
same,"viability, T/C","second compound 1 µM, first compound 0.0949 µM",52%
same,"viability, T/C","second compound 1 µM, first compound 0.3 µM",50.6%
same,"viability, T/C","second compound 1 µM, first compound 0.949 µM",51.8%
same,"viability, T/C","second compound 1 µM, first compound 3 µM",48.6%
same,"viability, T/C","second compound 3.16 µM, first compound 0.00949 µM",45.2%
same,"viability, T/C","second compound 3.16 µM, first compound 0.03 µM",54%
same,"viability, T/C","second compound 3.16 µM, first compound 0.0949 µM",51.3%
same,"viability, T/C","second compound 3.16 µM, first compound 0.3 µM",46.7%
same,"viability, T/C","second compound 3.16 µM, first compound 0.949 µM",53.3%
same,"viability, T/C","second compound 3.16 µM, first compound 3 µM",57.1%
same,"viability, T/C","second compound 10 µM, first compound 0.00949 µM",55%
same,"viability, T/C","second compound 10 µM, first compound 0.03 µM",52.2%
same,"viability, T/C","second compound 10 µM, first compound 0.0949 µM",55.5%
same,"viability, T/C","second compound 10 µM, first compound 0.3 µM",59.3%
same,"viability, T/C","second compound 10 µM, first compound 0.949 µM",59.9%
same,"viability, T/C","second compound 10 µM, first compound 3 µM",53.3%
CC1COCCN1c1cc(C2(O)CC3CCC(C2)O3)c2cnn(-c3ccn[nH]3)c2n1 (centres undefined),"viability, T/C",compound 0.0316 µM,57.4% and 69.5% and 69.9%
same,"viability, T/C",compound 0.1 µM,44% and 49.5% and 54.2%
same,"viability, T/C",compound 0.316 µM,43.3% and 37.3% and 38.3%
same,"viability, T/C",compound 1 µM,32.6% and 33.5% and 34.5%
same,"viability, T/C",compound 3.16 µM,26% and 30.2% and 30.3%
same,"viability, T/C",compound 10 µM,14.7% and 11.1% and 17.2%
same,IC50,curve of compound,75.7 nM and 135 nM and 153 nM
